For the assay, the target named is PIK3CD (Human) (UniProt O00329). The experiment in a line: Assessment of PIK3CD Kinase Activity.

This note sets out measurements from the Kinase Knowledgebase extract (Sharma et al. 2016).

Chain of PIK3CD (Human) (O00329 whole entry, looked up): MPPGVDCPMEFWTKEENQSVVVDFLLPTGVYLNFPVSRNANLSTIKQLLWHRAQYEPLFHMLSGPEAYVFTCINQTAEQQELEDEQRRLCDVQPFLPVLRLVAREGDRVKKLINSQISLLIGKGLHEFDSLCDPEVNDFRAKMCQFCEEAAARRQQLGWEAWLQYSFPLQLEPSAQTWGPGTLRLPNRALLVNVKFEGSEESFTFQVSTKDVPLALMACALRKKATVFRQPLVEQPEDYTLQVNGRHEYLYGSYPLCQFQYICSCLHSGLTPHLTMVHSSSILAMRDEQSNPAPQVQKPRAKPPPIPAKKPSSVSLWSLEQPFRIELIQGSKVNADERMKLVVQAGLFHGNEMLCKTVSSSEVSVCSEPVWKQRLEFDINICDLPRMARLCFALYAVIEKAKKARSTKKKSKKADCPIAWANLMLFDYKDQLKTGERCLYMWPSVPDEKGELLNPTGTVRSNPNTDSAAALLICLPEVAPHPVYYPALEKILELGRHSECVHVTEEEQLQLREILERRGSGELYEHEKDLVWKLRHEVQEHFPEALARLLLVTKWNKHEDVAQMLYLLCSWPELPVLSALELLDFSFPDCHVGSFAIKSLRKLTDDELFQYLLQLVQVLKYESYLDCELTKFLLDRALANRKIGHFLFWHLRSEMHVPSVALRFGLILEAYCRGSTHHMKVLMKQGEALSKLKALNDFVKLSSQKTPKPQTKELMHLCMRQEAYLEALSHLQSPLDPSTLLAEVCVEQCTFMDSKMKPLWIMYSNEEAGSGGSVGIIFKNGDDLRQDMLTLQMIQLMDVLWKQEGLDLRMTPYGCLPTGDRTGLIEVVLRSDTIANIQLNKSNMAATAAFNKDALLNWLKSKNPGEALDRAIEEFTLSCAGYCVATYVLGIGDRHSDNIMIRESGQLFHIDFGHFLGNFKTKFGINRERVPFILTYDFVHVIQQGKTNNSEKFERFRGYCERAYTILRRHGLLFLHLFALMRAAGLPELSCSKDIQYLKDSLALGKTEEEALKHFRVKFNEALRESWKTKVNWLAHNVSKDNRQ

In the case of `OCC1CCN(Cc2cc3nc(-c4cccc5[nH]ncc45)nc(N4CCOCC4)c3s2)CC1`, the IC50 was ≤ 100 nM. Consider `CN(C)C(=O)CN1CCN(Cc2cc3nc(-c4cccc5[nH]ccc45)nc(N4CCOCC4)c3s2)CC1`, for which the IC50 was ≤ 100 nM. Turning to `c1ccc(CC2CCN(Cc3cc4nc(-c5cccc6[nH]ncc56)nc(N5CCOCC5)c4s3)CC2)nc1`, the IC50 is ≤ 100 nM.

As for `CS(=O)(=O)C1CCN(Cc2cc3nc(-c4cccc5[nH]ncc45)nc(N4CCOCC4)c3s2)CC1`, the IC50 was ≤ 100 nM. `C[C@@H]1CN(Cc2cc3nc(-c4cccc5[nH]ncc45)nc(N4CCOCC4)c3s2)C[C@H](C)N1Cc1ccccn1`: the IC50 is ≤ 100 nM.

Take `c1ccc(NC2CCN(Cc3cc4nc(-c5cccc6[nH]ncc56)nc(N5CCOCC5)c4s3)CC2)nc1`: the IC50 is ≤ 100 nM.

In the case of `CN(C)C(=O)N1CCN(Cc2cc3nc(-c4cccc5[nH]ccc45)nc(N4CCOCC4)c3s2)CC1`, the concentration for half-maximal inhibition (IC50) is ≤ 100 nM. The result for `COCCN(C)C(=O)N1CCN(Cc2cc3nc(-c4cccc5[nH]ccc45)nc(N4CCOCC4)c3s2)CC1` reads ≤ 100 nM; that for `O=C1CN(Cc2cc3nc(-c4cccc5[nH]ncc45)nc(N4CCOCC4)c3s2)CCN1CCO`, ≤ 100 nM; that for `Cn1ccnc1CN1CCN(Cc2cc3nc(-c4cccc5[nH]ncc45)nc(N4CCOCC4)c3s2)CC1`, ≤ 100 nM. For the molecule `COCCN(Cc1nccs1)C1CCN(Cc2cc3nc(-c4cccc5[nH]ncc45)nc(N4CCOCC4)c3s2)CC1`, the IC50 is ≤ 100 nM. As for `c1cc(-c2nc(N3CCOCC3)c3sc(CN4CCC(N5CCOCC5)CC4)cc3n2)c2cn[nH]c2c1`, the figure is ≤ 100 nM; as for `COCCN(C1CCN(Cc2cc3nc(-c4cccc5[nH]ncc45)nc(N4CCOCC4)c3s2)CC1)S(C)(=O)=O`, ≤ 100 nM. For the molecule `c1cc(-c2nc(N3CCOCC3)c3sc(CN4CCN(c5nccs5)CC4)cc3n2)c2cn[nH]c2c1`, the IC50 is ≤ 100 nM.

Regarding `COCCN(C)C1CCN(Cc2cc3nc(-c4cccc5[nH]ccc45)nc(N4CCOCC4)c3s2)CC1`, the IC50 is ≤ 100 nM. `c1cc(-c2nc(N3CCOCC3)c3sc(CN4CCN(Cc5ccncc5)CC4)cc3n2)c2cn[nH]c2c1`: the IC50 is ≤ 100 nM. Regarding `COCCN(C)CC1CCN(Cc2cc3nc(-c4cccc5[nH]ncc45)nc(N4CCOCC4)c3s2)CC1`, the IC50 was ≤ 100 nM. The result for `CS(=O)(=O)N1CCN(Cc2cc3nc(-c4cccc5[nH]ccc45)nc(N4CCOCC4)c3s2)CC1` reads ≤ 100 nM; that for `CC(C)(CO)N1CCN(Cc2cc3nc(-c4cccc5[nH]ncc45)nc(N4CCOCC4)c3s2)CC1`, ≤ 100 nM; that for `OC(COc1ccccc1)CN1CCN(Cc2cc3nc(-c4cccc5[nH]ncc45)nc(N4CCOCC4)c3s2)CC1` (stereo unspecified), ≤ 100 nM. On to `c1cc(-c2nc(N3CCOCC3)c3sc(CN4CCC(Cn5ccnc5)CC4)cc3n2)c2cn[nH]c2c1`, for which the IC50 is ≤ 100 nM.

In general, IC50 refers to the concentration that gives 50% inhibition. Low readings indicate greater potency in that assay, high ones weaker potency in that assay.
